Laboratory results published in patent publication US8168596B2, “Use of cycloartane compounds for treating arthritis” (NuLiv Holding Inc., priority 2008, dated 2012).

Columns and labels:
MMP-1 [1] = test: Western blot of MMP-1 in PMA- or IL-1β-pre-treated SW1353 cells (Example 6); format: cell-based, human; settings: 48 h
Description: (§1) The cells were then plated on 6-cm dishes at a density of 1×10^6 cells/dish for 24 hours prior to any treatment. At the beginning of the experiment, the cells were pre-treated with 100 ng/mL PMA or 10 ng/mL IL-1β for 24 hours. The cells were then treated 0.1 μM Dexamethasone with, various astragaloside compounds (0.1 μM) or extracts of Astragalus membranaceous (1 μg/mL) at indicated dosages for another 48 hours. For control sample, 0.1% DMSO was used as a negative control for these experiments. The conditioned culture mediums were then centrifuged, 2-fold concentrated and collected for assay of collagens or MMPs secreted into the culture medium.
(§2) Western blotting analysis was carried out on both cultured medium and cell lysates, as follows. The cells were washed and lysed in 0.2 mL of lysis buffer (1% NP-40, 50 mM Tris-HCl, pH 7.4, 180 mM NaCl, 1 mM EDTA, 1 mM PMSF, 1 mM NaF, 10 mM Na3VO4) for 30 min at 4° C. After centrifuging at 17500 g for 15 min, the supernatants of cell lysate were also collected. Protein concentration of the samples were measured using the bicinchoninic acid (BCA) protein assay kit according to the manufacturer's protocol (Pierce, Rockford, Ill., USA). Equal amount of protein samples of concentrated conditioned medium (100 μg) or cell lysate supernatants (50 μg) were mixed with an appropriate volume of 4×SDS sampling buffer and separated by 8% SDS-PAGE gel. The protein bands separated in the SDS-PAGE gel were blotted onto a polyvinylidene fluoride (PVDF) membrane. The blotted PVDF membrane was washed twice and blocked in freshly prepared Tris-buffered saline (TBS) containing 0.1% Tween-20 and 7% skim milk (TBST) for 2 hours at room temperature. The PVDF membrane was then incubated with either antibodies against collagen I and III or the housekeeping protein α-tubulin (Santa Cruz Biotechnology, Santa Cruz, Calif.) for 18 hours at 4° C. Horseradish peroxidase-conjugated anti-goat antibody was used as secondary antibody. Signals were visualized by an enhanced chemiluminescence kit (Clonetech, Palo Alto, Calif., USA) followed by exposure to X-ray films.

MMP-1 [2] = test: Western blot of MMP-1 in pre-treated human chondrocytes (HCHs); format: cell-based; settings: 0.1 μM, 48 h
HCH cells [3] = test: Glucosamine uptake assay; format: cell-based, human; settings: astragalosides 0.1 μM, 24 h, Ctrl 1.00
Description: The HCHs were cultured as described above in Example 7. For the glucosamine uptake test, HCH cells were seeded into 24-well plate at a density of 3×10^4 cells per well and cultured for 24 hours. The cells were then treated in the absence (solvent control) or presence of the astragalosides (0.1 μM) or Astragalus membranaceous extracts (1.0 μg/mL) for another 24 hours. The treated cells were then washed twice with PBS and incubated in glucose and serum free medium (GSFM). After 2 hours, the cells were replaced with fresh GSFM containing 0.2 μCi of [^14C]-Glucosamine (American Radiolabelled Chemicals Inc, ARC, St. Louis, Mo., USA). At the designated time interval, the cells were washed twice with GSFM containing cold glucosamine and then lysed in 200 μL of 2% SDS. Cell lysates were centrifuged at 15000 g for 15 min. Intracellular uptaken glucosamine was determined by transferring 10 μL of the cell lysate to filter-bottomed UniFilter plates (Perkim-Elmer) and counting. The samples were measured for their protein concentration using the BCA protein assay kit as described above. The amount of glucosamine accumulated in the cells was calculated and normalized to protein concentration and uptake rate was expressed as counts per minute per microgram of cell protein (cpm/min/μg).

MMP-13 [4] = test: Western blot of MMP-13 in PMA- or IL-1β-pre-treated SW1353 cells (Example 6); format: cell-based, human; settings: 0.1 μM, 48 h
Description: as §1
as §2, with “The PVDF membrane was then incubated with either antibodies against collagen I and III or the housekeeping protein α-tubulin (Santa Cruz Biotechnology, Santa Cruz, Calif.) for 18 hours at 4° C.” left out

HCH cells [5] = test: Proline uptake assay; format: cell-based, human; settings: astragalosides 0.1 μM, 24 h, Ctrl 1.00
Description: The proline uptake assay was carried out as described below, generally in accordance with the method disclosed in Biochim Biophys Acta. 1104:283-292, 1992, the contents of which are incorporated by reference. Briefly, HCH cells were seeded into a 24-well plate at a density of 3×10^4 cells per well and cultured for 24 hours. The cells were then treated in the absence (solvent control) or presence of the astragalosides (0.1 μM) or Astragalus membranaceous extracts (1.0 μg/mL) for another 24 hours. The treated cells were then washed once with PBS and incubated in amino acid free medium (AAFM) for another 30 min. The treated cells were then replaced with fresh AAFM containing 50 μg/mL of ascorbate and total of 0.5 mM of L-proline containing 1 μCi [^3H] Proline (American Radiolabelled Chemicals Inc, ARC, St. Louis, Mo., USA). At designated time intervals, the cells were washed with AAFM containing cold proline and then lysed in 200 μL of 2% SDS. Cell lysates were centrifuged at 15000 g for 15 min. Intracellular proline uptaken by the cells was determined by transferring 10 μL of the cell lysate to filter-bottomed UniFilter plates (Perkim-Elmer) and counting. The samples were measured for their protein concentrations using the BCA protein assay kit as described above. The amount of proline accumulated in the cells was calculated and normalized to protein concentration. And cellular uptake rate was expressed as nmole of L-proline per minute per […] of cell protein (nmole/min/μg).

Type II Collagen = test: Western blot of Type II Collagen in pre-treated human chondrocytes (HCHs); format: cell-based; settings: PMA-pre-treated HCH culture medium; 0.1 μM, 48 h
MMP-13 [6] = test: Western blot of MMP-13 in pre-treated human chondrocytes (HCHs); format: cell-based; settings: 0.1 μM, 48 h
MMP-9 = test: Zymography of MMP-9 from pre-treated SW1353 cells; format: cell-based, human; settings: PMA-pre-treated SW1353; 0.1 μM, 24 h
Description: (§3) At the beginning of the experiment, the cells were pre-treated with 100 ng/mL PMA or 10 ng/mL IL-1β for 24 hours. The cells were then treated with 0.1 μM Dexamethasone, various astragaloside compounds (0.1 μM) or extracts of Astragalus membranaceous (1 μg/mL) at indicated dosages for another 24 hours. For control sample, 0.1% DMSO was used as a negative control for these experiments. The conditioned culture mediums were then centrifuged, 2-fold concentrated and collected for assay of collagens or MMPs secreted into the culture medium.
(§4) The proteolytic activities of MMPs from SW1353 cells were measured essentially as described previously (Circ Res, 1999; 85:906-911). The cells were lysed in lysis buffer (1% Triton X-100, 50 mM Tris-Cl, pH 7.4, 180 mM NaCl, 1 mM EDTA). The samples were measured for their protein concentration using the bicinchoninic acid (BCA) protein assay kit as described. Samples of concentrated conditioned medium and cell lysates were mixed with non-reducing electrophoresis loading buffer and subjected to electrophoresis under non-reducing conditions. The electrophoresis was carried out on a 10% SDS-PAGE co-polymerized with 2 mg/mL gelatin or casein (Sigma, St. Louis, Mo. USA). For zymographic analysis of pro-MMP-2 and activated MMP-2, the total 20 μg of culture medium were used for electrophoresis. Following electrophoresis, renaturation of the proteins was achieved by incubating the gels twice in 25 g/L Triton X-100 at room temperature for 10 min. Subsequently the gels were incubated in 50 mM Tris-HCl, pH 7.5 containing 0.2 M NaCl, 0.02% Brij35 and 10 mM CaCl2 at 37° C. for 18 hours. After the gels were stained with Coomassie Brilliant Blue R-250 and destained, zones of proteolytic activities became visible as transparent bands in the stained gel. In order to obtain higher sensitivity, the gels were further destained in a solution of 1% Triton X-100 (1 to 2 hours). This procedure increased the signal-to-noise ratio, allowing the visualization of faint gelatinase bands at 92 kDa, 125 kDa and greater than 200 kDa. Zymograms were read using a Molecular Dynamics (Sunnyvale, Calif., USA) computing laser densitometer with Image Quant software.

MMP-2 = test: Zymography of MMP-2 from pre-treated SW1353 cells; format: cell-based, human; settings: PMA-pre-treated SW1353; 0.1 μM, 24 h
Description: as §3, §4

MMP-1 [7] = test: Zymography of MMP-1 from pre-treated SW1353 cells; format: cell-based, human; settings: PMA-pre-treated SW1353; 0.1 μM, 24 h
Description: as §3, §4

MMP1 = settings: UO126 10 μM, SP600125 25 μM, SB203580 5 μM, 24 h, then PMA 100 ng/mL 24 h
Description: The SW1353 cells were grown at 37° C. in a humidified incubator under 5% CO2 and 95% air in the culture medium as described above. The SW1353 cells were then sub-cultured into 6-well culture plates with serum free medium at an average amount of 2×10^5 cells per well and incubated for 24 hours. Then, the SW1353 cells were treated with 10 μM UO126 (MEK1-specific inhibitor), 25 μM, SP600125 (JNK-specific inhibitor), 5 μM SB203580 (p38-specific inhibitor), or 20 μM LY294002 (PI3K kinase inhibitor), and incubated for another 24 hours. Later, the SW1353 cells were treated with 100 ng/mL PMA and again incubated for 24 hours. Finally, the SW1353 cells were under cell extraction and the cell lysate was used for further luciferase analysis and western blotting analysis.
The SW1353 cells were grown at 37° C. in a humidified incubator under 5% CO2 and 95% air in the culture medium as described above. The SW1353 cells were then sub-cultured into 24-well culture plates and cultured for 24 hours. […] Following cell extraction, the cell lysate was centrifuged at 4° C., 20000 g for 30 minutes and then transferred to a 1.5 ml-microcentrifuge tube. Then, 100 μl buffer A (0.1 mM luciferin) and 350 μl buffer B (1 M MgSO4, 1 M Hepes (pH 7.8), 0.1 M ATP) were added into the microcentrifuge tube. The luciferase activity of final mixture was measured by a luminometer for 30 seconds.

[8] = PMA-pre-treated SW1353 culture medium, 0.1 μM
[9] = PMA-pre-treated HCH cell extract
[10] = PMA-pre-treated HCH culture medium
[11] = PMA-pre-treated SW1353 culture medium
[12] = PMA-pre-treated SW1353 cell extract, 0.1 μM
[13] = PMA-pre-treated SW1353 cell extract

Row | SMILES | MMP-1, Western blot, relative to Ctrl 1.00 (MMP-1 [1]; IL-1β-pre-treated SW1353 cell extract, compounds 0.1 μM) | MMP-1, Western blot, relative to Ctrl 1.00 (MMP-1 [1]; IL-1β-pre-treated SW1353 culture medium, 0.1 μM) | MMP-1, Western blot, relative to Ctrl 1.00 (MMP-1 [1]; [8]) | MMP-1, Western blot, relative to Ctrl 1.00 (MMP-1 [2]; [9]) | MMP-1, Western blot, relative to Ctrl 1.00 (MMP-1 [2]; [10]) | glucosamine uptake, Relative fold (HCH cells [3]) | MMP-13, Western blot, relative to Ctrl 1.00 (MMP-13 [4]; IL-1β-pre-treated SW1353 culture medium) | MMP-13, Western blot, relative to Ctrl 1.00 (MMP-13 [4]; [11]) | proline uptake, Relative fold (HCH cells [5]) | Type II Collagen, Western blot, relative to Ctrl 1.00 (Type II Collagen) | MMP-13, Western blot, relative to Ctrl 1.00 (MMP-13 [6]; [9]) | MMP-13, Western blot, relative to Ctrl 1.00 (MMP-13 [6]; [10]) | MMP-1, Western blot, relative to Ctrl 1.00 (MMP-1 [1]; [12]) | MMP-13, Western blot, relative to Ctrl 1.00 (MMP-13 [4]; [13]) | MMP-9, Zymography, relative to Ctrl 1.00 (MMP-9) | MMP-2, Zymography, relative to Ctrl 1.00 (MMP-2) | MMP-1, Zymography, relative to Ctrl 1.00 (MMP-1 [7]) | luciferase activity (control group 1 fold, PMA-only group 8 fold) (MMP1)
1 | CC(C)(O)C1CC[C@](C)(C2[C@@H](O)C[C@@]3(C)C4C[C@H](OC5OC(CO)C(O)C(O)C5O)C5C(C)(C)[C@@H](O)CCC56CC46CC[C@]23C)O1 (stereo partly drawn) [AA, cycloastragenol 6-O-β-D-glucopyranose] | 0.74 | 0.76 | 0.52 | 0.44 | 0.44 | 1.19 fold | 0.93 | 0.84 | 2.80 fold | 1.42 | 0.44 | 0.49 |  |  |  |  |  | 
2 | CC(=O)O[C@H]1[C@H](O[C@H]2CC[C@]34C[C@]35CC[C@]3(C)[C@@H]([C@@]6(C)CC[C@@H](C(C)(C)O)O6)[C@@H](O)C[C@@]3(C)[C@@H]5C[C@H](O[C@@H]3O[C@H](CO)[C@@H](O)[C@H](O)[C@H]3O)[C@H]4C2(C)C)OC[C@@H](OC(C)=O)[C@@H]1O [IsoAS1, Isoastragaloside I] |  |  | 0.77 |  |  | 1.16 fold |  | 1.03 | 2.82 fold |  |  |  | 0.67 | 1.19 | 0.85 | 1.01 | 0.66 | 
3 | CC(=O)O[C@@H]1[C@@H](O)[C@H](O[C@H]2CC[C@]34C[C@]35CC[C@]3(C)[C@@H]([C@@]6(C)CC[C@@H](C(C)(C)O)O6)[C@@H](O)C[C@@]3(C)[C@@H]5C[C@H](O[C@@H]3O[C@H](CO)[C@@H](O)[C@H](O)[C@H]3O)[C@H]4C2(C)C)OC[C@H]1O [IsoAS2, Isoastragaloside II] |  |  | 0.77 |  |  | 1.07 fold |  | 0.80 | 1.61 fold |  |  |  | 1.28 | 0.60 | 0.95 | 1.04 | 0.95 | 
4 | C[S+]([O-])c1ccc(-c2nc(-c3ccncc3)c(-c3ccc(F)cc3)[nH]2)cc1 (stereo not shown) [SB203580] |  |  |  |  |  |  |  |  |  |  |  |  |  |  |  |  |  | 2 fold
